Positions of bridges follow the written chain, without caps; N, C: chain ends. Non-standard residues stand in square brackets, D forms with d. Residues, ends and D or L forms follow the SMILES beside them. Trp(1-Me) = Cn1cc(C[C@H](N)C(=O)O)c2ccccc21; 2Nal = N[C@@H](Cc1ccc2ccccc2c1)C(=O)O; Sar = CNCC(=O)O
Legend:
[1] = tested on: classical complement pathway; experiment: In vitro haemolysis assay (inhibition of classical complement pathway); format: cell-based, human; conditions: Table 3; human serum, sensitized sheep red blood cells; read-out: IC50[nM], in vitro analysis of inhibition of hemolysis
Method in brief: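 Serially diluted compound (9 points) was preincubated 15 min at room temperature with diluted human serum, titrated per batch to give 70-90% maximal haemolysis, in Tris/casein buffer pH 7.4 with Mg2+/Ca2+. Antibody-sensitized sheep erythrocytes were then added for 30 min at 37° C, and the reaction was stopped with EDTA. Haemolysis was read at A405, with IC50 from 4PL fit.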

[2] = Solubility test at 10 mg/mL (visual inspection and light scattering); format: physicochemical; conditions: for Solubility, Condition 1 Acetate pH 4: 10 mg/mL compound in 100 mM acetate pH 4; for Solubility, Condition 2 Acetate pH 5: 10 mg/mL compound in 100 mM acetate pH 5; for Solubility, Condition 3 Phosphate pH 6: 10 mg/mL compound in 100 mM phosphate pH 6; for Solubility, Condition 4 Phosphate pH 7: 10 mg/mL compound in 100 mM phosphate pH 7; for Solubility, Condition 5 Phosphate pH 7.5: 10 mg/mL compound in 100 mM phosphate pH 7.5

SMILES: CC[C@H](C)[C@H](NC(=O)[C@H](C)NC(=O)[C@H](CO)NC(=O)CNC(=O)[C@H](CCC(=O)O)NC(C)=O)C(=O)N[C@H]1CSSC[C@@H](C(=O)N(C)CC(=O)N[C@@H](CCC(=O)O)C(=O)NCC(=O)N[C@@H](CCC(=O)O)C(N)=O)NC(=O)[C@H](CCCNC(=N)N)NC(=O)[C@H](Cc2c[nH]cn2)NC(=O)[C@H](CCC(=O)O)NC(=O)CNC(=O)[C@H](Cc2c[nH]c3ccccc23)NC(=O)[C@H](CC(=O)O)NC(=O)[C@H](CCC(N)=O)NC(=O)[C@H](Cc2c[nH]c3ccccc23)NC(=O)[C@H]([C@@H](C)CC)NC1=O [Compound 44] (Ac-EGSAICIWQDWGEHRC[Sar]EGE-NH2; disulfide 6-16)
- IC50 [1]: < 250 nM
- Solubility, Condition 1 Acetate pH 4 [2]: − (denotes lack of solubility at the given condition, as UV absorbance at 340 nm exceeds 0.1 AU and/or it is visibly turbid or contains particles.)
- Solubility, Condition 2 Acetate pH 5 [2]: − (denotes lack of solubility at the given condition, as UV absorbance at 340 nm exceeds 0.1 AU and/or it is visibly turbid or contains particles.)
- Solubility, Condition 3 Phosphate pH 6 [2]: + (denotes solubility at the given condition, as determined by UV absorbance being less than 0.1 AU at 340 nm and the sample being clear when manually inspected.)
- Solubility, Condition 4 Phosphate pH 7 [2]: + (denotes solubility at the given condition, as determined by UV absorbance being less than 0.1 AU at 340 nm and the sample being clear when manually inspected.)
- Solubility, Condition 5 Phosphate pH 7.5 [2]: + (denotes solubility at the given condition, as determined by UV absorbance being less than 0.1 AU at 340 nm and the sample being clear when manually inspected.)

SMILES: CC[C@H](C)[C@@H]1NC(=O)[C@@H](NC(=O)CN(C)C(=O)[C@H](CCC(=O)O)NC(=O)[C@H](CO)NC(C)=O)CSSC[C@@H](C(=O)N(C)CC(=O)N[C@@H](CCC(=O)O)C(=O)N[C@@H](C)C(N)=O)NC(=O)[C@H](CCCNC(=N)N)NC(=O)[C@H](Cc2c[nH]cn2)NC(=O)[C@H](CCC(=O)O)NC(=O)CNC(=O)[C@H](Cc2c[nH]c3ccccc23)NC(=O)[C@H](CC(=O)O)NC(=O)[C@H](CCC(N)=O)NC(=O)[C@H](Cc2cn(C)c3ccccc23)NC1=O [Compound 81] (Ac-SE[Sar]CI[Trp(1-Me)]QDWGEHRC[Sar]EA-NH2; disulfide 4-14)
- IC50 [1]: < 100 nM
- Solubility, Condition 1 Acetate pH 4 [2]: − (denotes lack of solubility at the given condition, as UV absorbance at 340 nm exceeds 0.1 AU and/or it is visibly turbid or contains particles.)
- Solubility, Condition 2 Acetate pH 5 [2]: − (denotes lack of solubility at the given condition, as UV absorbance at 340 nm exceeds 0.1 AU and/or it is visibly turbid or contains particles.)
- Solubility, Condition 3 Phosphate pH 6 [2]: + (denotes solubility at the given condition, as determined by UV absorbance being less than 0.1 AU at 340 nm and the sample being clear when manually inspected.)
- Solubility, Condition 4 Phosphate pH 7 [2]: + (denotes solubility at the given condition, as determined by UV absorbance being less than 0.1 AU at 340 nm and the sample being clear when manually inspected.)
- Solubility, Condition 5 Phosphate pH 7.5 [2]: + (denotes solubility at the given condition, as determined by UV absorbance being less than 0.1 AU at 340 nm and the sample being clear when manually inspected.)

SMILES: CC[C@H](C)[C@H](NC(C)=O)C(=O)N[C@H]1CSSC[C@@H](C(=O)N[C@@H](CCC(=O)O)C(=O)NCC(=O)N[C@@H](CCC(=O)O)C(N)=O)NC(=O)[C@H](CCCNC(=N)N)NC(=O)[C@H](Cc2c[nH]cn2)NC(=O)[C@H](CCC(=O)O)NC(=O)CNC(=O)[C@H](Cc2c[nH]c3ccccc23)NC(=O)[C@H](CC(=O)O)NC(=O)[C@H](CCC(N)=O)NC(=O)[C@H](Cc2c[nH]c3ccccc23)NC(=O)[C@H]([C@@H](C)CC)NC1=O [Compound 27] (Ac-ICIWQDWGEHRCEGE-NH2; disulfide 2-12)
- IC50 [1]: < 100 nM
- Solubility, Condition 1 Acetate pH 4 [2]: − (denotes lack of solubility at the given condition, as UV absorbance at 340 nm exceeds 0.1 AU and/or it is visibly turbid or contains particles.)
- Solubility, Condition 2 Acetate pH 5 [2]: − (denotes lack of solubility at the given condition, as UV absorbance at 340 nm exceeds 0.1 AU and/or it is visibly turbid or contains particles.)
- Solubility, Condition 3 Phosphate pH 6 [2]: − (denotes lack of solubility at the given condition, as UV absorbance at 340 nm exceeds 0.1 AU and/or it is visibly turbid or contains particles.)
- Solubility, Condition 4 Phosphate pH 7 [2]: + (denotes solubility at the given condition, as determined by UV absorbance being less than 0.1 AU at 340 nm and the sample being clear when manually inspected.)
- Solubility, Condition 5 Phosphate pH 7.5 [2]: + (denotes solubility at the given condition, as determined by UV absorbance being less than 0.1 AU at 340 nm and the sample being clear when manually inspected.)

SMILES: CC[C@H](C)[C@@H]1NC(=O)[C@@H](NC(=O)[C@H](Cc2ccccc2)NC(=O)[C@H](N)Cc2ccc(O)cc2)CSSC[C@@H](C(=O)N[C@H](C(=O)NCC(=O)N[C@@H](C)C(=O)N[C@@H](CCC(=O)O)C(=O)N[C@@H](CO)C(N)=O)[C@@H](C)O)NC(=O)[C@H](CCCNC(=N)N)NC(=O)[C@H](Cc2c[nH]cn2)NC(=O)[C@H](CCC(=O)O)NC(=O)CN(C)C(=O)[C@H](Cc2c[nH]c3ccccc23)NC(=O)[C@H](CC(=O)O)NC(=O)[C@H](CCC(N)=O)NC(=O)[C@H](Cc2cn(C)c3ccccc23)NC1=O [Compound 73, H-{d}YFC(1)I[1-Me-Trp]QDW[Sar]EHRC(1)TGAES-NH2] (H-[dY]FCI[Trp(1-Me)]QDW[Sar]EHRCTGAES-NH2; disulfide 3-13)
- IC50 [1]: < 100 nM
- Solubility, Condition 1 Acetate pH 4 [2]: + (denotes solubility at the given condition, as determined by UV absorbance being less than 0.1 AU at 340 nm and the sample being clear when manually inspected.)
- Solubility, Condition 2 Acetate pH 5 [2]: − (denotes lack of solubility at the given condition, as UV absorbance at 340 nm exceeds 0.1 AU and/or it is visibly turbid or contains particles.)
- Solubility, Condition 3 Phosphate pH 6 [2]: − (denotes lack of solubility at the given condition, as UV absorbance at 340 nm exceeds 0.1 AU and/or it is visibly turbid or contains particles.)
- Solubility, Condition 4 Phosphate pH 7 [2]: + (denotes solubility at the given condition, as determined by UV absorbance being less than 0.1 AU at 340 nm and the sample being clear when manually inspected.)
- Solubility, Condition 5 Phosphate pH 7.5 [2]: + (denotes solubility at the given condition, as determined by UV absorbance being less than 0.1 AU at 340 nm and the sample being clear when manually inspected.)

SMILES: CC[C@H](C)[C@@H]1NC(=O)[C@@H](NC(=O)[C@H](Cc2ccccc2)NC(C)=O)CSSC[C@@H](C(=O)N[C@H](C(=O)NCC(=O)N[C@@H](C)C(=O)N[C@@H](CCC(=O)O)C(=O)N[C@@H](CO)C(N)=O)[C@@H](C)O)NC(=O)[C@H](CCCNC(=N)N)NC(=O)[C@H](Cc2c[nH]cn2)NC(=O)[C@H](CCC(=O)O)NC(=O)CN(C)C(=O)[C@H](Cc2c[nH]c3ccccc23)NC(=O)[C@H](CC(=O)O)NC(=O)[C@H](CCC(N)=O)NC(=O)[C@H](Cc2cn(C)c3ccccc23)NC1=O [Compound 72, Ac-FC(1)I[1-Me-Trp]QDW[Sar]EHRC(1)TGAES-NH2] (Ac-FCI[Trp(1-Me)]QDW[Sar]EHRCTGAES-NH2; disulfide 2-12)
- IC50 [1]: < 100 nM
- Solubility, Condition 1 Acetate pH 4 [2]: − (denotes lack of solubility at the given condition, as UV absorbance at 340 nm exceeds 0.1 AU and/or it is visibly turbid or contains particles.)
- Solubility, Condition 2 Acetate pH 5 [2]: − (denotes lack of solubility at the given condition, as UV absorbance at 340 nm exceeds 0.1 AU and/or it is visibly turbid or contains particles.)
- Solubility, Condition 3 Phosphate pH 6 [2]: + (denotes solubility at the given condition, as determined by UV absorbance being less than 0.1 AU at 340 nm and the sample being clear when manually inspected.)
- Solubility, Condition 4 Phosphate pH 7 [2]: + (denotes solubility at the given condition, as determined by UV absorbance being less than 0.1 AU at 340 nm and the sample being clear when manually inspected.)
- Solubility, Condition 5 Phosphate pH 7.5 [2]: + (denotes solubility at the given condition, as determined by UV absorbance being less than 0.1 AU at 340 nm and the sample being clear when manually inspected.)

SMILES: CC[C@H](C)[C@@H]1NC(=O)[C@@H](NC(=O)[C@H](Cc2ccccc2)NC(=O)[C@H](C)NC(=O)[C@H](CO)NC(=O)CNC(=O)[C@H](CCC(=O)O)NC(C)=O)CSSC[C@@H](C(=O)N[C@H](C(=O)N[C@@H](CCC(=O)O)C(N)=O)[C@@H](C)O)NC(=O)[C@H](CCCNC(=N)N)NC(=O)[C@H](Cc2c[nH]cn2)NC(=O)[C@H](CCC(=O)O)NC(=O)CNC(=O)[C@H](Cc2c[nH]c3ccccc23)NC(=O)[C@H](CC(=O)O)NC(=O)[C@H](CCC(N)=O)NC(=O)[C@H](Cc2ccc3ccccc3c2)NC1=O [Compound 60] (Ac-EGSAFCI[2Nal]QDWGEHRCTE-NH2; disulfide 6-16)
- IC50 [1]: < 100 nM
- Solubility, Condition 1 Acetate pH 4 [2]: − (denotes lack of solubility at the given condition, as UV absorbance at 340 nm exceeds 0.1 AU and/or it is visibly turbid or contains particles.)
- Solubility, Condition 2 Acetate pH 5 [2]: − (denotes lack of solubility at the given condition, as UV absorbance at 340 nm exceeds 0.1 AU and/or it is visibly turbid or contains particles.)
- Solubility, Condition 3 Phosphate pH 6 [2]: + (denotes solubility at the given condition, as determined by UV absorbance being less than 0.1 AU at 340 nm and the sample being clear when manually inspected.)
- Solubility, Condition 4 Phosphate pH 7 [2]: + (denotes solubility at the given condition, as determined by UV absorbance being less than 0.1 AU at 340 nm and the sample being clear when manually inspected.)
- Solubility, Condition 5 Phosphate pH 7.5 [2]: + (denotes solubility at the given condition, as determined by UV absorbance being less than 0.1 AU at 340 nm and the sample being clear when manually inspected.)

Reference: patent US20220306695A1, “COMPSTATIN ANALOGUES AND THEIR MEDICAL USES” (priority 2019, published 2022)
